US8461171B2, “Hybrid opioid compounds and compositions” (QRxPHARMA Ltd., priority 2010, dated 2013)

Tests used:
Type in all cases: in vivo
CD1 mice [1] = assay: Oral antinociception in CD1 mice (tail flick), morphine/oxycodone alone, combined or as prodrugs; conditions: for oral antinociceptive activity (in words): CD1 mice
CD1 mice [2] = assay: Intracerebroventricular (icv) antinociceptive activity in CD1 mice; conditions: for Icv ED50 values: CD1 mice, confidence range in brackets
CD1 mice [3] = assay: 24-hour tolerance study after icv administration in CD1 mice; conditions: for MPE still present after 24 hours: 24 hours after icv administration
CD1 mice [4] = assay: Behavioral observations after icv administration
Method: These curves enabled the determination of ED50 values. […] Some behavioral observations are also reported.
This behavior was not observed 10 minutes post injection. […] The animals were active for about two hours. After 24 hours, the animals maintained about 20% MPE.

SMILES	oral antinociceptive activity (in words) (CD1 mice [1]; oral)	peak time (pt), time to maximum effect (CD1 mice [2])	Icv ED50 values (CD1 mice [2])	MPE still present after 24 hours (CD1 mice [3])	24-h Tolerance Study, outcome (CD1 mice [3]; icv)	24-h Tolerance Study, Day 1 (CD1 mice [3]; icv, Day 1)	24-h Tolerance Study, Day 2 (CD1 mice [3]; icv, Day 2)	also measured
COc1ccc2c3c1O[C@H]1/C(=N/OCC(=O)O[C@H]4C=CC5C6Cc7ccc(O)c8c7[C@@]5(CCN6C)[C@H]4O8)CC[C@@]4(O)C(C2)N(C)CC[C@]314 (stereo partly shown) [MLN II-31]	weak antinociceptive activity	–	–	–	–	–	–	maximum antinociception (CD1 mice [1]; 10 mg/kg, 4 hours after oral administration): 25%; antinociceptive activity (CD1 mice [1]; oral, measured from 15 min to 24 hours): 7-20 % of MPE
COc1ccc2c3c1O[C@H]1C(=NOC(=O)O[C@H]4C=CC5C6Cc7ccc(O)c8c7[C@@]5(CCN6C)[C@H]4O8)CC[C@@]4(O)C(C2)N(C)CC[C@]314 (stereo partly shown) [MLN II-45]	the same activity as when oxycodone and morphine are administered together in a 1:1 ratio	–	–	–	–	–	–	–
CN1CC[C@]23c4c5ccc(O)c4O[C@H]2[C@@H](NC(=O)COCCOCCn2cc(COCC(=O)N[C@H]4CC[C@@]6(O)C7Cc8ccc(O)c9c8[C@@]6(CCN7C)[C@H]4O9)nn2)CC[C@@]3(O)C1C5 [MLN II-83]	–	20 min	0.190 nmol/mouse (0.065-0.558)	20 ± 10 % MPE	seems to induce some tolerance	67.95 ± 13.62	48.35 ± 15.68	–
CN1CC[C@]23c4c5ccc(O)c4O[C@H]2[C@@H](NC(=O)COCCOCc2cn(CCOCCOCC(=O)N[C@@H]4CC[C@@]6(O)C7Cc8ccc(O)c9c8[C@@]6(CCN7C)[C@H]4O9)nn2)CC[C@@]3(O)C1C5 [MLN II-120]	–	10 min	0.571 nmol/mouse (0.423-0.770)	–	No tolerance	95.65 ± 4.65	91.38 ± 13.08	animals showing barrel rolling and out stretched limbs (CD1 mice [4]; with 2 minutes of icv injection, not observed 10 minutes post injection): about 50%
CN1CC[C@]23c4c5ccc(O)c4O[C@H]2[C@@H](NC(=O)COCCOCCOCc2cn(CCOCCOCC(=O)N[C@H]4CC[C@@]6(O)C7Cc8ccc(O)c9c8[C@@]6(CCN7C)[C@H]4O9)nn2)CC[C@@]3(O)C1C5 [MLN II-121]	–	10 min	0.272 nmol/mouse (0.164-0.453)	about 20 % MPE	–	–	–	MPE still present after 24 hours (CD1 mice [3]; listed as MLN II- 121): 23.06 ± 4.30 % MPE; 48 hour tolerance test, outcome (CD1 mice [3]; icv, 48 hour test): No tolerance; 48 hour tolerance test, Day 1 (CD1 mice [3]; icv, 48 hour test, Day 1): 90.00 ± 10.69; 48 hour tolerance test, Day 2 (CD1 mice [3]; icv, 48 hour test, Day 2): 80.41 ± 12.06; behavioral observations (CD1 mice [4]; after icv administration): pacing and had straub tails; time the animals were active (CD1 mice [4]; after icv administration): about two
CN1CC[C@]23c4c5ccc(O)c4O[C@H]2[C@@H](O)C=C[C@H]3[C@H]1C5 [Morphine, reference compound]	–	10 min	2.68 nmol/mouse	–	–	–	–	peak time [pt] (CD1 mice [2]): 10 ′
